{"source": "paper PMC12644484", "about": "(Scientific Reports, 2025)", "key": {"[1]": {"target": "T1, RNaseH2 (Homo sapiens, UniProt O75792)", "T1 construct": "made in house; host or cells: E. coli BL21 (DE3) RIPL", "T1 sequence (O75792 1-299)": "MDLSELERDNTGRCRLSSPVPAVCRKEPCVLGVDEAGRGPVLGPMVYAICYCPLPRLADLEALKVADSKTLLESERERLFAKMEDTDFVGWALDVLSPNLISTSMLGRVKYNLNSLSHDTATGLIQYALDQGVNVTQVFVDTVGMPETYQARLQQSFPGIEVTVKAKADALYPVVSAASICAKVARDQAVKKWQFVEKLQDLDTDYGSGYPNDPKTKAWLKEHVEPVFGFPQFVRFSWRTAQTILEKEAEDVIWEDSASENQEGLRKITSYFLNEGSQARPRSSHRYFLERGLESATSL", "T1 sequence (Q5TBB1 1-312 partner)": "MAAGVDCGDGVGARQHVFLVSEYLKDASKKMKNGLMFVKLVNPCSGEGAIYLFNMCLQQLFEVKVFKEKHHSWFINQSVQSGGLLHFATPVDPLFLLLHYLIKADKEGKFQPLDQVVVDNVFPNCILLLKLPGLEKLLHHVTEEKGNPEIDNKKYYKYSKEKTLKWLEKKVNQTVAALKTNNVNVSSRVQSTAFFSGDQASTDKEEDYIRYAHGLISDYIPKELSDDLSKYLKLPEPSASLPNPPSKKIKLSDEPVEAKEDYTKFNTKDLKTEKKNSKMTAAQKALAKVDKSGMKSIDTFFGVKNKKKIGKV", "T1 sequence (Q8TDP1 1-164 partner)": "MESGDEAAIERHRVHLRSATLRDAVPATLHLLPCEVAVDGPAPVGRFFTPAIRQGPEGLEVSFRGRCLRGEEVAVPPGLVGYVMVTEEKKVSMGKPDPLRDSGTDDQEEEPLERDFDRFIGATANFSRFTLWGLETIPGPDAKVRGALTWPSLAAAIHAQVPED", "experiment": "Fluorogenic RNaseH2 activity assay (RNA/DNA hybrid substrate)", "assay_type": "biochemical", "conditions": "fluorescence assay, four-parameter logistic fit; read-out: RNaseH2 inhibition IC50", "description": "Briefly, a biochemical activity assay was established employing a duplex RNA/DNA oligonucleotide containing an internally quenched fluorophore and a single ribonucleotide positioned so that RNaseH2-mediated incision would lead to dissociation and de-quenching. […] To identify inhibitors, we screened several compound libraries containing a total of 71394 chemical compounds (Fig. 1c).\n(a) RNaseH2 activity assay. An 80 nM RNA/DNA hybrid substrate was incubated with the indicated concentrations of RNaseH2, and fluorescence was recorded over 45 minutes. Each data point represents the average of four technical replicates. (b) RNaseH2 inhibition. […] Each data point denotes the average (± SD) of two technical replicates and was fitted to a four-parameter logistic curve. (c) High-throughput screening for RNaseH2 inhibitors. Each symbol represents one technical replicate of 71394 screening compounds, 9495 DMSO solvent controls, and 3552 no-enzyme controls. […] (d) Z’-factor of high-throughput screening assay. […] (e) Hit validation experiments on six candidate RNaseH2 inhibitors. […]\nRNaseH2 activity assay was performed at room temperature in 384-well plates (black OptiPlates, PerkinElmer). […] The samples were incubated at room temperature for 20–30 min, and fluorescence was recorded using a Tecan SPARK plate reader at an excitation wavelength of 610[10] nm and emission wavelength of 670[20] nm."}, "[2]": {"target": "T1, RNaseH2", "conditions": "read-out: RNaseH2 inhibition IC50, reported value; cited from earlier work"}}, "note": "Where two headings read alike, the source gives them in different places."}
{"smiles": "O=C(CSc1ncnc2sc3c(c12)CCCC3)NCc1ccco1", "note": "[RHI002, N-(2-Furanylmethyl)−2-[(5,6,7,8-tetrahydro[1]benzothieno[2,3-d]pyrimidin-4-yl)thio]-acetamide]", "values": [{"measurement": "IC50", "setting": "[1]", "result": 5.6, "unit": "µM"}, {"measurement": "IC50", "setting": "[2]", "result": 16, "unit": "µM"}]}
